Test results published in patent US11419870B2, “Intermittent dosing of MDM2 inhibitor” (Novartis AG, priority 2014, dated 2022).

What was measured:
[1] = Pharmacokinetics of Compound A in SJSA-1 tumor-bearing rat (plasma, tumor, tissues; UPLC/MS-MS); format: in vivo, nude rat
Protocol: Subcutaneous tumors were induced by concentrating 1.0×10^7 SJSA-1 cells in 50% Matrigel® and injecting in the right flank of Harlan nude rats. Efficacy experiment could start 14 days post cell injection. […] The animals were treated either at a high dose (20 mg/kg i.v. or 27 mg/kg p.o.) once every 3 weeks (q3w) or at a high dose (15 mg/kg p.o.) followed 24 h later by a daily low dose treatment (3 mg/kg p.o., 2 weeks on/2 weeks off).
At the times indicated, animals were anaesthetized by exposure to 2-3% v/v isofluorane in medical oxygen: • Either the animal was killed without recovering from anesthetic after blood sampling. Blood was collected into commercially prepared EDTA coated tubes (Milian, cat #TOM-14C) in order to extract plasma. The tissues were excised, weighed and rapidly frozen in liquid nitrogen. • Or a tumor biopsy was collected by using a biopsy gun and flushing the needle with RLT buffer in Barney rubble tubes (Covaris, cat #520048). In addition, 20 μl of blood may have been collected from the tail vein and diluted in 20 μl of water. After recovery of anesthesia, animals were transferred in their respective cages.
Tissues were homogenized in an equal volume of HPLC-Water (Water for chromatography, Merck) using the Fast Prep®-24 system (M.P. Biomedicals, Irvine, Calif., USA). Following addition of 25 μl of internal standard mixture (1 μg/ml) to analytical aliquots (25 μl) of plasma or tissues homogenate the proteins were precipitated by the addition of 200 μl acetonitrile. The supernatant were transferred in a fresh vial. After evaporation to dryness the samples were re-dissolved in 60 μl acetonitrile/water (1/1 v/v). An aliquot (5 μl) of this solution was separated on a ACQUITY UPLC BEH C18 column (Waters™ 1.7 μm particle size, 2.1×50 mm) with a mobile phase consisting of a mixture of 0.1% formic acid in water (solvent A) and 0.1% formic acid in acetonitrile (solvent B). Gradient programming was used with a flow rate of 600 μl/min. After equilibration with 95% solvent A, 5 μl of sample was injected. Following a latency period of 0.25 min, the sample was eluted with a linear gradient of 5-100% solvent B over a period of 0.65 minutes followed by a 0.35 minutes hold. The column was prepared for the next sample by re-equilibrating over 0.25 minutes to the starting conditions. The column eluent was directly introduced into the ion source of the triple quadrupole mass spectrometer TQD™ (Waters Corporation, Milford, Mass., USA) controlled by Masslynx™ 4.1 software. Electrospray positive ionization (ESI+) multiple reaction monitoring was used for the MS/MS detection of the analyte. […] The limit of quantification (LOQ) for the compound was set to 0.7 ng/mL (CV and overall bias less than 30%). Regression analysis and further calculations were performed using QuanLynx™ 4.1 (Micromass) and Excel™ 2007 (Microsoft). Concentrations of unknown samples were back-calculated based on the peak area ratios of analyte/IS from a calibration curve constructed using calibration samples spiked in blank plasma or tissue obtained from animals treated with vehicle.
Areas under the plasma concentration versus time curves (AUC) were calculated from the mean values with linear trapezoidal rule, and further relevant parameters by using a non-compartmental model for extravascular dosing (WinNonlin® Professional Version 5.2, Pharsight corp., CA, US).

[2] = test system: Cleaved Caspase-3; assay: Caspase-3 activation in SJSA-1 tumor (immunohistochemistry); format: in vivo, nude rat; conditions: higher single dose; 24 h post-treatment
Protocol: All tissues were processed to FFPE according to routine procedures and following fixation, rat sternum was decalcified in Citrate/EDTA buffer for 5 days, with buffer exchange every 24 h. Sections were cut at 3 μm using a microtome. p21 and cleaved Caspase-3 immunohistochemistry was performed on a Ventana Discovery XT automated immunostainer using the OmniMap anti Mouse or Rabbit HRP secondary reagent and the ChromoMap DAB chromogen system (Ventana/Roche Diagnostics GmbH, Mannheim, Germany). Antigen retrieval was done by using Cell Conditioning Discovery CC1 (Ventana/Roche Diagnostics) at mild (95° 8 min+100° 20 min, for cleaved Caspase-3) or standard (95° 8 min+100° 36 min, for p21) conditions. The primary antibody was applied manually at the desired dilution in Dako antibody diluent, followed by incubation for 1 hour at room temperature. Corresponding negative controls were incubated with AbD only. Counterstaining of sections was done using hematoxylin (Ventana/Roche Diagnostics). After the automated staining run, slides were dehydrated in a graded series of ethanol, cleared in xylene and mounted with Pertex mounting medium.

[3] = Tolerability in SJSA-1 tumor-bearing nude rat (body weight, survival); format: in vivo
Protocol: Subcutaneous tumors were induced by concentrating 1.0×10^7 SJSA-1 cells in 50% Matrigel® and injecting in the right flank of Harlan nude rats.
[formula] Similarly, the body-weight (BW) of the animal was measured three times per week allowing calculation at any particular time-point relative to the day of initiation of treatment (day 0) of the percentage change in BW (Δ % BW).

[4] = test system: white blood cells (WBC), neutrophils and platelets; assay: White blood cells, neutrophils and platelets count (Sysmex); format: in vivo, nude rat
Source text: The white blood cells (WBC), neutrophils and platelets were counted using a Sysmex (XT-2000i).
Blood was collected into commercially prepared EDTA coated microtubes (BD Microtainer, cat #365975).

[5] = test system: p21, Mdm2 and cleaved Caspase-3 in jejunum and bone marrow (sternum); assay: Immunohistochemistry of host tissues after i.v. treatment; format: in vivo, rat; conditions: i.v. 20 mg/kg
Protocol: Sections were cut at 3 μm using a microtome. p21 and cleaved Caspase-3 immunohistochemistry was performed on a Ventana Discovery XT automated immunostainer using the OmniMap anti Mouse or Rabbit HRP secondary reagent and the ChromoMap DAB chromogen system (Ventana/Roche Diagnostics GmbH, Mannheim, Germany). […] The primary antibody was applied manually at the desired dilution in Dako antibody diluent, followed by incubation for 1 hour at room temperature. Corresponding negative controls were incubated with AbD only. Counterstaining of sections was done using hematoxylin (Ventana/Roche Diagnostics). After the automated staining run, slides were dehydrated in a graded series of ethanol, cleared in xylene and mounted with Pertex mounting medium.

[6] = p.o. q3w 27 mg/kg, before the second treatment

Question: What does the source list for `COc1ncc(-c2nc3c(n2C(C)C)[C@H](c2ccc(Cl)cc2)N(c2cc(Cl)cn(C)c2=O)C3=O)c(OC)n1` [Compound A, (S)-5-(5-Chloro-1-methyl-2-oxo-1,2-dihydro-pyridin-3-yl)-6-(4-chloro-phenyl)-2-(2,4-dimethoxy-pyrimidin-5-yl)-1-isopropyl-5,6-dihydro-1H-pyrrolo[3,4-d]imidazol-4-one]?
Answer: Cmax and AUC0-24 h in blood ([1]; after first p.o. treatment, 20 and 27 mg/kg q3w): dose-dependently increased; exposure in heart, jejunum, spleen, liver and bone marrow compared to plasma ([1]; i.v. 20 mg/kg on day 59 post first treatment): twice as high as in plasma; Tmax ([1]; nude (Harlan), rat, iv, single i.v. injection 20 mg/kg, liver): 5 min; Tmax ([1]; nude (Harlan), rat, iv, single i.v. injection 20 mg/kg, plasma): 5 min; Tmax ([1]; nude (Harlan), rat, iv, single i.v. injection 20 mg/kg, tumor): 60 min; Tmax ([1]; nude (Harlan), rat, single oral 27 mg/kg, all matrices (plasma, tumor and liver)): 180 min; AUC(0-t) ([1]; nude (Harlan), rat, single oral 27 mg/kg, plasma, read-out: AUC0-144 h): 112 µM·h; exposure in tumor compared to plasma ([1]; single i.v. injection 20 mg/kg): two times higher; AUC0-144 h dn ([1]; single i.v. injection 20 mg/kg, tumor): 16.5 nmol·h/g; AUC0-144 h ([1]; single oral 27 mg/kg, tumor): 277.7 nmol·h/g; caspase-3 activation in tumor [2]: strong caspase-3 activation; ABW (%) ([3]; i.v. q3w 13.7 mg/kg, week 1 post treatment): 2.7 ± 0.9%; ABW (%) ([3]; i.v. q3w 13.7 mg/kg, week 2 post treatment): 7.5 ± 1.0%; ABW (%) ([3]; i.v. q3w 18.2 mg/kg, week 1 post treatment): 2.5 ± 2.6%; ABW (%) ([3]; i.v. q3w 18.2 mg/kg, week 2 post treatment): 9.1 ± 1.9%; ABW (%) ([3]; i.v. q3w 18.2 mg/kg, week 3 post treatment): 11.9 ± 2.7%; ABW (%) ([3]; i.v. q3w 18.2 mg/kg, week 5 post treatment): 10.6 ± 2.3%; ABW (%) ([3]; i.v. q3w 18.2 mg/kg, week 6 post treatment): 5.9 ± 7.9%; sacrifice because of excessive body weight (BW) loss ([3]; single i.v. 20 mg/kg, day 9 post treatment): One rat had to be sacrificed; recovery of WBCs, neutrophils and platelets ([4]; i.v. q3w 18.2 mg/kg, day 21 post second treatment): only partially recovered; WBCs, neutrophils and platelets ([4]; i.v. q3w 20 mg/kg, after the first treatment): dramatic decrease; WBCs, neutrophils and platelets ([4]; i.v. q3w 20 mg/kg, after the second treatment): extremely low level close to 0; recovery of WBCs, neutrophils and platelets ([4]; i.v. q3w 20 mg/kg, day 21 post treatment, most rats): only partially recovered; WBCs, neutrophils and platelets ([4]; i.v. q3w 13.7 and 18.2 mg/kg, after the first treatment): strong decrease; recovery of WBCs, neutrophils and platelets ([4]; i.v. q3w 13.7 and 18.2 mg/kg, day 21 post treatment): fully recovered; recovery of WBCs and platelets ([4]; p.o. q3w 20 mg/kg, before the second treatment): fully recovered; recovery of WBCs [4, 6]: only partially; recovery of platelets [4, 6]: fully recovered; WBCs, neutrophils and platelets ([4]; p.o. q3w 20 and 27 mg/kg): dose-dependent decrease; time of maximum increase in p21, Mdm2 and cleaved Caspase-3 ([5]; jejunum and bone marrow (sternum)): 3 h; time of return of all staining to baseline ([5]; post treatment): 7 days
